ChEMBL document CHEMBL3098066, “Minimum active structure of insulin-like peptide 5” (J Med Chem, 2013)
Activity calls are given as the source filed them. Where a SMILES comes first, the peptide text is derived from it. Bridges are numbered along the chain shown (N, C = ends). The star is where a group is joined. Acm = CC(=O)NC*; tBu = CC(C)(C)*; Cam = NC(=O)C*

Columns and labels:
[1] = molecular target: Relaxin-3 receptor 2 (Homo sapiens) (UniProt Q8TDU9); assay: Agonist activity at human RXFP4 transfected in CHO-K1 cells at 0.01 nM to 1000 nM by beta-galactosidase reporter gene assay relative to forskolin; assay type: functional, cell-based
[2] = molecular target: Relaxin-3 receptor 2 (Homo sapiens) (UniProt Q8TDU9); assay: Agonist activity at human RXFP4 transfected in CHO-K1 cells assessed as inhibition of forskolin-induced cAMP production by beta-galactosidase reporter gene assay; assay type: functional, cell-based
[3] = molecular target: Relaxin-3 receptor 2 (Homo sapiens) (UniProt Q8TDU9); assay: Displacement of Eu(A)-mINSL5 acid from human RXFP4 transfected in CHO-K1 cells by fluorescence-based assay; assay type: cell-based
[4] = molecular target: Relaxin-3 receptor 2 (Homo sapiens) (UniProt Q8TDU9); assay: Agonist activity at human RXFP4 transfected in CHO-K1 cells at 10 uM by beta-galactosidase reporter gene assay relative to forskolin; assay type: functional, cell-based
[5] = molecular target: Relaxin-3 receptor 2 (Homo sapiens) (UniProt Q8TDU9); assay: Agonist activity at human RXFP4 transfected in CHO-K1 cells up to 10 uM by beta-galactosidase reporter gene assay relative to forskolin; assay type: functional, cell-based

Sequence of Relaxin-3 receptor 2 (Homo sapiens) (Q8TDU9 whole entry): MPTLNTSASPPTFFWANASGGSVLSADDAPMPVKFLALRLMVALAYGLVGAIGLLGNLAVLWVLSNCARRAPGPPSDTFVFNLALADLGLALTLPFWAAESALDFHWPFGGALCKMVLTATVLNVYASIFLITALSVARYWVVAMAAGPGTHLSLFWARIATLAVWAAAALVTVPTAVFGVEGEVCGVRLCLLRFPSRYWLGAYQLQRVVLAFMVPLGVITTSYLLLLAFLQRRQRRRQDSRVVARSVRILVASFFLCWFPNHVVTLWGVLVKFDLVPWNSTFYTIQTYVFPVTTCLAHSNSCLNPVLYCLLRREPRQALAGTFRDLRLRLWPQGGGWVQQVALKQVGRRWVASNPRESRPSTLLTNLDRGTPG

CSCC[C@H](NC(=O)[C@H](CO)NC(=O)[C@@H]1CSSC[C@H](NC(=O)[C@H](CC(C)C)NC(=O)[C@H](C)NC(=O)[C@H](CCC(N)=O)NC(=O)[C@H](CC(C)C)NC(=O)[C@H](CC(=O)O)NC(=O)[C@@H](N)CCCNC(=N)N)C(=O)N[C@@H](CSC(C)(C)C)C(=O)N[C@@H](CCCNC(=N)N)C(=O)N[C@@H](CCC(=O)O)C(=O)NCC(=O)N1)C(=O)N[C@@H](CCCCN)C(=O)N[C@@H](CCC(=O)O)C(=O)N[C@@H](CC(C)C)C(=O)N[C@@H](CO)C(=O)N[C@H](C(=O)N[C@@H](CC(C)C)C(=O)N[C@@H](CSCNC(C)=O)C(=O)O)[C@@H](C)O (H-RDLQALCC(tBu)REGCSMKELSTLC(Acm)-OH; disulfide 7-12)
inactive: Emax [1] | pEC50 [2] | pIC50 [3]

H-SRQTVKLAGLDYVRTVIYIAASSRW-OH
inactive: Emax [4] | pEC50 [2] | pIC50 [3]

CSCC[C@H](NC(=O)[C@H](CO)NC(=O)[C@H](CSCC(N)=O)NC(=O)CNC(=O)[C@H](CCC(=O)O)NC(=O)[C@H](CCCNC(=N)N)NC(=O)[C@H](CSC(C)(C)C)NC(=O)[C@H](CSCC(N)=O)NC(=O)[C@H](CC(C)C)NC(=O)[C@H](C)NC(=O)[C@H](CCC(N)=O)NC(=O)[C@H](CC(C)C)NC(=O)[C@H](CC(=O)O)NC(=O)[C@@H](N)CCCNC(=N)N)C(=O)N[C@@H](CCCCN)C(=O)N[C@@H](CCC(=O)O)C(=O)N[C@@H](CC(C)C)C(=O)N[C@@H](CO)C(=O)N[C@H](C(=O)N[C@@H](CC(C)C)C(=O)N[C@@H](CSCNC(C)=O)C(=O)O)[C@@H](C)O (H-RDLQALC(Cam)C(tBu)REGC(Cam)SMKELSTLC(Acm)-OH)
inactive: Emax [1] | pEC50 [2] | pIC50 [3]

H-SRQTVKLAGLDYVRTVIYIAR-OH
inactive: pEC50 [2] | pIC50 [3] | Emax [5]
